From ChEMBL document CHEMBL2406964, “Caffeic acid phenethyl ester inhibits alpha-melanocyte stimulating hormone-induced melanin synthesis through suppressing transactivation activity of microphthalmia-associated transcription factor” (J Nat Prod, 2013) come the findings set out here.

In series [1] the target is Glycogen synthase kinase-3 beta (Mus musculus) (UniProt Q9WV60). The series is described as follows: Inhibition of GSK-3beta phosphorylation in alpha-MSH-induced mouse B16F10 cells at 1 uM after 30 mins to 2 hrs by Western blotting analysis. The class given is cell-based. To be noted: B16-F10. On the technique in general: In western blotting, separated proteins are transferred to a membrane and probed.
Glycogen synthase kinase-3 beta (Mus musculus), sequence (Q9WV60 whole entry, looked up): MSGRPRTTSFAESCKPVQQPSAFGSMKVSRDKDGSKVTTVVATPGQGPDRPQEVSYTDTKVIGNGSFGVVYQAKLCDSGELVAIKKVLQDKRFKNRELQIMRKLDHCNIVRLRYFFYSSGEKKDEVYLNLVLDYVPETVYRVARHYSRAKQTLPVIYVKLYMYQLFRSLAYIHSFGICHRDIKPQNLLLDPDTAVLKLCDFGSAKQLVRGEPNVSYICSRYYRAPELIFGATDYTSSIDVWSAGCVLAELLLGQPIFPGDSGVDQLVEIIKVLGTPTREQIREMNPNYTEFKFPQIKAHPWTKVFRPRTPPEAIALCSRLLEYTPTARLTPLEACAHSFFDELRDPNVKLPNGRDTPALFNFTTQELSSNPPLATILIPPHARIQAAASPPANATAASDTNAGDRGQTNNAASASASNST

In series [2] the target is T1, Tyrosinase (Mus musculus) (UniProt P11344).
T1 sequence (whole entry): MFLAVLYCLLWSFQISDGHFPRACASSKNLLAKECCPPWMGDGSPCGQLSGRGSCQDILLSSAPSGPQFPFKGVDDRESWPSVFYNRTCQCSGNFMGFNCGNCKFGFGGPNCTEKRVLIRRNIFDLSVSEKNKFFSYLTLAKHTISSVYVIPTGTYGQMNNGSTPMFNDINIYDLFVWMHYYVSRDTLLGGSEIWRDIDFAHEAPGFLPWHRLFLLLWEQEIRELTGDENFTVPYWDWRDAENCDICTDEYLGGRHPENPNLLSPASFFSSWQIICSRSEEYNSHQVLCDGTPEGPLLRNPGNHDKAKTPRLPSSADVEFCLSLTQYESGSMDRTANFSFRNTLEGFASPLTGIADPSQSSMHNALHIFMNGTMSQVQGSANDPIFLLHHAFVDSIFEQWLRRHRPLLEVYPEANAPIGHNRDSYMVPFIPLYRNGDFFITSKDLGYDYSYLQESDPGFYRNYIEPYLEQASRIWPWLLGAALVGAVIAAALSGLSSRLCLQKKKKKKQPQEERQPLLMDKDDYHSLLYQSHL
Description: Inhibition of tyrosinase in alpha-MSH-treated mouse B16F10 cells assessed as reduction in L-DOPA oxidase activity at 0.5 to 2 uM after 72 hrs. To be noted: B16-F10. The class given is cell-based.

Series [3] has as its system B16-F10. Description: Antimelanogenic activity in mouse B16F10 cells assessed as inhibition of alpha-MSH-induced MITF protein expression at 1 uM after 30 mins to 2 hrs by Western blotting analysis. The class given is functional, cell-based.
For series [4], the system named is B16-F10. Description: Antimelanogenic activity in mouse B16F10 cells assessed as inhibition of alpha-MSH-induced MITF nuclear translocation at 1 uM after 30 mins to 2 hrs by Western blotting analysis. The class given is functional, cell-based.
Series [5] relates to B16-F10. Description: Antimelanogenic activity in mouse B16F10 cells assessed as inhibition of alpha-MSH-induced MITF mRNA expression at 1 uM after 30 mins to 2 hrs by RT-PCR analysis. The class given is functional, cell-based.
The subject of series [6] is B16-F10. The series is described as follows: Antimelanogenic activity in mouse B16F10 cells assessed as inhibition of alpha-MSH-induced intracellular melanin production after 72 hrs by spectrophotometry. The class given is functional, cell-based.
Series [7] deals with T2, Microphthalmia-associated transcription factor (Mus musculus) (UniProt Q08874).
T2 sequence (whole entry): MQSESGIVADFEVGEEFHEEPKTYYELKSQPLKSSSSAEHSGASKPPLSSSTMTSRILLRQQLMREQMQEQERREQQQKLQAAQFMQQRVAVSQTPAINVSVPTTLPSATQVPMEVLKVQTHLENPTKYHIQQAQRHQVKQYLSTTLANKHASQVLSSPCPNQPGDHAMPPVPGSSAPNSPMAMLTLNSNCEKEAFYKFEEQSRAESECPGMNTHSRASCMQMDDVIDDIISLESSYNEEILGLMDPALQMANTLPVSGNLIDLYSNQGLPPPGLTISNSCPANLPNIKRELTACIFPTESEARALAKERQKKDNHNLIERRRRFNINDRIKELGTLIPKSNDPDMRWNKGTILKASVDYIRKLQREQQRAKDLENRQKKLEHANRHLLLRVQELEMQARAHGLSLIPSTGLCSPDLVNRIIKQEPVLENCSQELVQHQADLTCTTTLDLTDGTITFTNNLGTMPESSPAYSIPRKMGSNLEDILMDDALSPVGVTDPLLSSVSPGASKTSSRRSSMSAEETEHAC
The series is described as follows: Inhibition of MITF in mouse B16F10 cells assessed as inhibition of alpha-MSH-induced TRP1 protein expression after 48 hrs by Western blotting analysis. The class given is cell-based. To be noted: B16-F10.

Series [8] deals with T2, Microphthalmia-associated transcription factor (Mus musculus). The series is described as follows: Inhibition of MITF binding to M-box region of tyrosinase promoter in alpha-MSH-induced mouse B16F10 cells at 1 uM after 24 hrs by Chromatin immunoprecipitation assay. The format is cell-based. To be noted: B16-F10.
For series [9], the system named is B16-F10. The series is described as follows: Inhibition of CREB phosphorylation in alpha-MSH-induced mouse B16F10 cells at 1 uM after 30 mins to 2 hrs by Western blotting analysis. The format is cell-based.
Series [10] concerns the target T2, Microphthalmia-associated transcription factor (Mus musculus). Description: Inhibition of MITF in mouse B16F10 cells assessed as inhibition of alpha-MSH-induced tyrosinase mRNA expression after 48 hrs by RT-PCR analysis. The class given is cell-based. Conditions: B16-F10.
Series [11] deals with T1, Tyrosinase (Mus musculus). Description: Inhibition of tyrosinase in alpha-MSH-treated mouse B16F10 cells up to 100 uM after 72 hrs by L-DOPA oxidase assay. The class given is cell-based. Conditions: B16-F10.
The target in series [12] is T2, Microphthalmia-associated transcription factor (Mus musculus). Description: Inhibition of MITF in mouse B16F10 cells assessed as inhibition of alpha-MSH-induced TRP2 mRNA expression after 48 hrs by RT-PCR analysis. Conditions: B16-F10. The class given is cell-based.
The target of series [13] is RAC-alpha serine/threonine-protein kinase (Mus musculus) (UniProt P31750). Description: Inhibition of Akt phosphorylation in alpha-MSH-induced mouse B16F10 cells at 1 uM after 30 mins to 2 hrs by Western blotting analysis. The format is cell-based. Conditions: B16-F10.
RAC-alpha serine/threonine-protein kinase (Mus musculus), sequence (P31750 whole entry): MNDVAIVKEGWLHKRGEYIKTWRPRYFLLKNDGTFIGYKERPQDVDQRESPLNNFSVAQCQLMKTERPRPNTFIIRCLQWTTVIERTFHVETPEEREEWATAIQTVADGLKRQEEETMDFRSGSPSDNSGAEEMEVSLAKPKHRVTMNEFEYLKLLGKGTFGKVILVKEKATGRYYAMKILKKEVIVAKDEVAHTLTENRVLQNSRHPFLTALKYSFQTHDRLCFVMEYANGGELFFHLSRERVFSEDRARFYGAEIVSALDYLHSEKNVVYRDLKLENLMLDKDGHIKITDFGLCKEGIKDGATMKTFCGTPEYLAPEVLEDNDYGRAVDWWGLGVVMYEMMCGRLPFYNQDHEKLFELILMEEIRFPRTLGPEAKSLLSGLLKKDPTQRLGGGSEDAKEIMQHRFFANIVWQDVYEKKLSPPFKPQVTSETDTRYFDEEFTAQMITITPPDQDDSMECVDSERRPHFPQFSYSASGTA
In series [14] the target is T2, Microphthalmia-associated transcription factor (Mus musculus). The series is described as follows: Inhibition of MITF binding to M-box region of TRP-1 promoter in alpha-MSH-induced mouse B16F10 cells at 1 uM after 24 hrs by Chromatin immunoprecipitation assay. The format is cell-based. Conditions: B16-F10.
The target is the same in series [15]. The series is described as follows: Inhibition of MITF binding to M-box region of TRP-2 promoter in alpha-MSH-induced mouse B16F10 cells at 1 uM after 24 hrs by Chromatin immunoprecipitation assay. The format is cell-based. Conditions: B16-F10.
The target is the same in series [16]. The series is described as follows: Inhibition of MITF in mouse B16F10 cells assessed as inhibition of alpha-MSH-induced TRP1 mRNA expression after 48 hrs by RT-PCR analysis. The class given is cell-based. Conditions: B16-F10.
For series [17] the target is unchanged. Description: Inhibition of MITF in mouse B16F10 cells assessed as inhibition of alpha-MSH-induced TRP2 protein expression after 48 hrs by Western blotting analysis. The format is cell-based. To be noted: B16-F10.
In series [18] the test system is B16-F10. The series is described as follows: Cytotoxicity against mouse B16F10 cells up to 2 uM after 72 hrs by MTT assay. To be noted: b16-f10, 72 h. The class given is cell-based. (Tetrazolium dyes change colour on reduction, which living cells bring about.)
Series [19] deals with T2, Microphthalmia-associated transcription factor (Mus musculus). The series is described as follows: Inhibition of MITF in mouse B16F10 cells assessed as inhibition of alpha-MSH-induced tyrosinase protein expression after 48 hrs by Western blotting analysis. The format is cell-based. To be noted: B16-F10.
Series [20] has the same target. Description: Inhibition of MITF in mouse B16F10 cells assessed as inhibition of alpha-MSH-induced tyrosinase promoter activity after 24 hrs by luciferase reporter gene assay. The format is cell-based. To be noted: B16-F10. In general terms: In a reporter assay the amount or activity of a reporter protein is the signal.
Series [21] deals with B16-F10. The series is described as follows: Antimelanogenic activity in mouse B16F10 cells assessed as inhibition of alpha-MSH-induced secreted melanin production after 72 hrs by spectrophotometry. The class given is functional, cell-based.
For series [22], the system named is B16-F10. The series is described as follows: Antimelanogenic activity in mouse B16F10 cells assessed as inhibition of alpha-MSH-induced melanin production at 1 to 2 uM after 72 hrs by spectrophotometry. The format is functional, cell-based.

Activity calls are given as the source filed them. The rule behind the calls is not given here.

For `O=C(/C=C/c1ccc(O)c(O)c1)OCCc1ccccc1` [CAFFEIC ACID PHENETHYL ESTER], the inhibition result (in series [1]; in the series on B16-F10 [3]; with B16-F10 [4]; in the series on B16-F10 [5]; in the series on B16-F10 [9]; in [11]) was “inactive” in each case. The inhibition entry in [13] was “inactive”. In addition, the inhibition result in [2], in [8], in series [14] and in [15] was “Active” in each case. The inhibition result (in the series on B16-F10 [6]; in [7]; in series [10]; in [12]; in series [16]; in series [17]) was “Dose-dependent effect” in each case. Besides, the inhibition result (in series [19]; in series [20]; in the series with B16-F10 [21]) was “Dose-dependent effect” in each case. Besides, in the series with B16-F10 [18], the Activity entry is given as “Non-toxic”.
As for `O=C(O)/C=C/c1ccc(O)c(O)c1`, in the series on B16-F10 [22], the inhibition entry is “inactive”.
Take `O=C(/C=C/c1ccccc1)OCCc1ccccc1`: in the series on B16-F10 [22], the inhibition entry is “inactive”.
On to `OCCc1ccccc1`, for which the inhibition result with B16-F10 [22] is “inactive”.
